# Data reported in publication PMC6934184, “Selective DNA-PKcs inhibition extends the therapeutic index of localized radiotherapy and chemotherapy” (The Journal of Clinical Investigation, 2019).
# Molecular target: T1, RET V804M (Homo sapiens, UniProt P07949, V804M)
# T1 construct: purchased Thermo Fisher Scientific (Life Technologies) SelectScreen
# Test: SelectScreen LanthaScreen
# Format: binding
# Conditions: read-out: % displacement
# Outline: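 NU5455 was profiled across the SelectScreen Broad panel of kinase activity and binding assays. Z'LYTE reactions such as CSF1R ran at apparent Km ATP, while the Adapta CAMK1 assay used ATP listed as 10. Values are given as percent.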
# T1 sequence (P07949 29-1114 V804M): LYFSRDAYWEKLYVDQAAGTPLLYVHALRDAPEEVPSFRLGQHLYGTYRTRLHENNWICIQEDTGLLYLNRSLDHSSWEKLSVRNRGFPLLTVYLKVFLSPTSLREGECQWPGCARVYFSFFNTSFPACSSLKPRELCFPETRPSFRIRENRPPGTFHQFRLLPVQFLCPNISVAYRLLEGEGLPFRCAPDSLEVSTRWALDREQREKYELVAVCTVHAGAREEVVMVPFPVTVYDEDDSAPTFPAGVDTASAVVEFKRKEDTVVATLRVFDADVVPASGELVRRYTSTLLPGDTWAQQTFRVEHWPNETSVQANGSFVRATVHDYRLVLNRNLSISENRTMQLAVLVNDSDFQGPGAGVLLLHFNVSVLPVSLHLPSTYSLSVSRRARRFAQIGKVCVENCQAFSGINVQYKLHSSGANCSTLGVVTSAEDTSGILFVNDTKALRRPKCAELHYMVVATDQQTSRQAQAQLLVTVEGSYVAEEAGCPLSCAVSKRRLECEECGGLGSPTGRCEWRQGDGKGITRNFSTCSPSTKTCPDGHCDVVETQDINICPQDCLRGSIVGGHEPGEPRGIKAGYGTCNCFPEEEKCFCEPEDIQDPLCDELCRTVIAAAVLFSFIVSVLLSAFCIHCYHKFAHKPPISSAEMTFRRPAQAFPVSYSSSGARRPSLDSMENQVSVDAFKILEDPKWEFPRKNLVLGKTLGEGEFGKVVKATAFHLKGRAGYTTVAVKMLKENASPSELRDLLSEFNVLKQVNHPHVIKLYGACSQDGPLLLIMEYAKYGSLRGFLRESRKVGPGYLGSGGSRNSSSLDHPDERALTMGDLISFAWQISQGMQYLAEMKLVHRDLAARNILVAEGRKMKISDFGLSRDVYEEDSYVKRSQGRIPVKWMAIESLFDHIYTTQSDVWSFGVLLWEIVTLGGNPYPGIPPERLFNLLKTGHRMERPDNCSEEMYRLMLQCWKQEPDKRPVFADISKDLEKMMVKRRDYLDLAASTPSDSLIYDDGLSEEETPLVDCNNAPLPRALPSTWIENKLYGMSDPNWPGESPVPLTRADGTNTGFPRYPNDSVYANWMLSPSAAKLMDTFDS
smiles,measurement,value
CN(C(=O)CN1CCOCC1)c1ccc2sc3c(-c4cccc5c(=O)cc(N6CC7CCC(C6)O7)oc45)cccc3c2c1 [NU5455],inhibition at 1 µM,11.3%
